Measurements taken from patent publication US10532985B2, “Heterocycle and carbocycle derivatives having TRKA inhibitory activity” (Shionogi & Co., Ltd., priority 2014, dated 2020).

How the values were obtained:
human TrkA [1] = biological target: T1, human TrkA (Homo sapiens, UniProt P04629); assay: Test Example 2: Human TrkA Inhibition Assay; type: biochemical; conditions: Test Example 2
T1 construct: purchased Lifetechnologies PV3144
In short: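 Mobility-shift kinase assay: 90 min reaction at room temperature, stopped with EDTA buffer; phosphorylated and non-phosphorylated fluorescent substrate measured, conversion ratio calculated. Inhibition % normalised between DMSO-only wells and no-TrkA wells.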

human TrkA [2] = biological target: T1, human TrkA; assay: Test Example 2-2: Human TrkA Inhibition Assay; type: biochemical
Description: Seven point five μL per well of human TrkA (PV3144, Lifetechnologies, final concentration: 1 nmol/L) suspended in the assay buffer (100 mmol/L 4-(2-hydroxyethyl)-1-piperazineethanesulfonic acid (HEPES), 10 mmol/L magnesium chloride, 0.003 vol % Brij-35, 0.004 vol % Tween20 and 1 mmol/L dithiothreitol (DTT)) was applied in a 384 well plate and the plate was pre-incubated for 15 min at room temperature with 0.4 μL of each compound (final concentration: […]) dissolved in DMSO. Then, fluorescent substrate (FL-peptide 27, 760424, PerkinElmer, final concentration: 1.5 μmol/L) and ATP (final concentration […]) dissolved in the assay buffer was added in each well. After the incubation of 120 min at 37° C., fifteen μL of termination buffer (100 mmol/L HEPES, 40 mmol/L ethylenediaminetetraacetic acid (EDTA), 10 mmol/L magnesium chloride, 0.003 vol % Brij-35, 0.004 vol % Tween20, 1 mmol/L DTT and 0.16 vol % Coating Reagent 3) was added in each well to stop the enzyme reaction. Fluorescent intensities (FI) of phosphorylated and non-phosphorylated fluorescent substrates were measured by LabChip EZReader II (Caliper LifeSciences, Inc.), and conversion ratio (CR) was calculated by the following formula-1. The CR in the well applied with DMSO alone was used as a negative control and the CR in the well without applying TrkA was used as a positive control. The inhibitory effect of each compound on TrkA phosphorylation was calculated by the following formula-2. CR (%)=(FI of phosphorylated substrate/(FI of phosphorylated substrate+FI of non-phosphorylated substrate))×100 (Formula-1) Phosphorylation inhibition (%)=(1−(CR with compound treatment−CR of positive control)/(CR of negative control−CR of positive control))×100 (Formula-2) Inhibitory effect on TrkA phosphorylation (%)=(1−(CR in compound treated well−CR in positive control)/(CR in negative control−CR in positive control))×100.
The 50/o inhibitory concentration (IC50) was determined by the logistic regression using the inhibition data in 10 points at a range of 2 μmol/L to 0.1 nmol/L or 200 μmol/L to 10 nmol/L).

[3] = biological target: T2, human ether-a-go-go related gene (hERG) channel (Homo sapiens, UniProt Q12809); assay: Test Example 3: hERG Test (whole cell patch clamp, IKr); type: cell-based; conditions: CHO cells expressing hERG
T2 construct: expressed in transfected cells; host or cells: CHO cells
From the text: For the purpose of assessing risk of an electrocardiogram QT interval prolongation of the compound of the present invention, effects of the compound of the present invention on delayed rectifier K current (I r), which plays an important role in the ventricular repolarization process, was studied using CHO cells expressing human ether-a-go-go related gene (hERG) channel.
After a cell was retained at a membrane potential of −80 mV by whole cell patch clamp method using an automated patch clamp system (QPatch; Sophion Bioscience A/S), IKr induced by leak potential at −50 mV, and then depolarization pulse stimulation at +20 mV for 2 seconds and, further, repolarization pulse stimulation at −50 mV for 2 seconds, was recorded. After the generated current was stabilized, extracellular solution (NaCl: 145 mmol/L, KCl: 4 mmol/L, CaCl2: 2 mmol/L, MgCl2: 1 mmol/L, glucose: 10 mmol/L, HEPES (4-(2-hydroxyethyl)-1-piperazineethanesulfonic acid): 10 mmol/L, pH7.4), in which the compound of the present invention had been dissolved at an objective concentration, was applied to the cell at room temperature for 10 minutes. From the recording IKr, an absolute value of the tail peak current was measured based on the current value at the resting membrane potential using analysis software (Falster Patch; Sophion Bioscience A/S). Further, the % inhibition relative to the tail peak current before application of the compound of the present invention was calculated, and compared with the vehicle-applied group (0.1% dimethyl sulfoxide solution) to assess influence of the compound of the present invention on IKr.

[4] = human TrkA 2.5 nmol/L, ATP 500 μmol/L, 90 min at room temperature, read-out: TrkA inhibitory activity IC50
[5] = human TrkA 1 nmol/L, 120 min at 37° C., read-out: TrkA inhibition IC50
[6] = human TrkA inhibition, class symbols A/B/C, read-out: IC50_nM
[7] = class symbols, read-out: IC50_nM

T2 sequence (Q12809 whole entry): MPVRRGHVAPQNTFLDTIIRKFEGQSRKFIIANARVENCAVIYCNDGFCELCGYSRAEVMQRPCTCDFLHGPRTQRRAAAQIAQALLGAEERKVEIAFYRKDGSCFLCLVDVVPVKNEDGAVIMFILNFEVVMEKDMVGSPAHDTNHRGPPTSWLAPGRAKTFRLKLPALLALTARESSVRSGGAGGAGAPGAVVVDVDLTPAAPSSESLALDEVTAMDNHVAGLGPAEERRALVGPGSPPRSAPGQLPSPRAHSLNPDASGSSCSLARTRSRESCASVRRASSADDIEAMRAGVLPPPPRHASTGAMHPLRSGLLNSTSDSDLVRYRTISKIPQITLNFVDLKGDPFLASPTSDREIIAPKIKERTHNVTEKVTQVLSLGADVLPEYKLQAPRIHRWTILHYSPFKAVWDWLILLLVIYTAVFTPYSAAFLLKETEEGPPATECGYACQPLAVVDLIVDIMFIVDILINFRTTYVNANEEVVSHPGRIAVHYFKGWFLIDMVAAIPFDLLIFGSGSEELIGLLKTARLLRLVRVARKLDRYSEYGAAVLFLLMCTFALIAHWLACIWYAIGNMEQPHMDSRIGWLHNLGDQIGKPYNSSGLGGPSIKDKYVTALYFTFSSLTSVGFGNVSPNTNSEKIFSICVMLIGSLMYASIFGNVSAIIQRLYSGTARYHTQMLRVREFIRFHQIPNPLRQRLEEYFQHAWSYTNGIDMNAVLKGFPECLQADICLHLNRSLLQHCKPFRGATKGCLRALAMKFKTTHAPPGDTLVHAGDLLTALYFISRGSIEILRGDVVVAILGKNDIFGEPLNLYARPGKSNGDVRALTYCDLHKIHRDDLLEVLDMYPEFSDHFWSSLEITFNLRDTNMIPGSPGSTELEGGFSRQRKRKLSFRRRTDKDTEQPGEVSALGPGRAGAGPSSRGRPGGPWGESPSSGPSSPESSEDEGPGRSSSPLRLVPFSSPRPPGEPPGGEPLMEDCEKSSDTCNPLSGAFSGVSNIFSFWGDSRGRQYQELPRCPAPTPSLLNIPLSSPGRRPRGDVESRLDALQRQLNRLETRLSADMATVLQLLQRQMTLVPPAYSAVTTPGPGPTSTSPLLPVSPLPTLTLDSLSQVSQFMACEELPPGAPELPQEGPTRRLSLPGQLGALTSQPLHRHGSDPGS
T1 sequence (P04629 33-796): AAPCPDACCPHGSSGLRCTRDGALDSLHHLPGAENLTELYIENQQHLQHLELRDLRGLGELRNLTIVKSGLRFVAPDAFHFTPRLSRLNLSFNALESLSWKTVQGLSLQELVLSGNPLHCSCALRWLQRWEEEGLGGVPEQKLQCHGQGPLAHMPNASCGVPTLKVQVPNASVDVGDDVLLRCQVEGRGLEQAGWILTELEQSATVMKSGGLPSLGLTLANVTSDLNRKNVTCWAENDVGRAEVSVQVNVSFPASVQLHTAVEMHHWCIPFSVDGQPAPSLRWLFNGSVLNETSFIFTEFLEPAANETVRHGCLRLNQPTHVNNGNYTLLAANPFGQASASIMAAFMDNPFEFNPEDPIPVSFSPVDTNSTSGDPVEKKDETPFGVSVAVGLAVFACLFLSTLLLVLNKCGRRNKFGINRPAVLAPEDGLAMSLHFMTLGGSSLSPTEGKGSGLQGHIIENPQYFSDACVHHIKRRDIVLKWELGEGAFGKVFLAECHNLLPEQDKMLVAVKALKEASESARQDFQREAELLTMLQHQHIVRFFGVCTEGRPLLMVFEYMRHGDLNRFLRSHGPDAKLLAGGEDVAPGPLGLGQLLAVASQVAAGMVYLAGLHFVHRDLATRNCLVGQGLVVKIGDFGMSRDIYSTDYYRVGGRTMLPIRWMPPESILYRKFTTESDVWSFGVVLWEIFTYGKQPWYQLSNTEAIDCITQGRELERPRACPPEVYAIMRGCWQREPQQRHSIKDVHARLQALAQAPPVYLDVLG

IC50 (human TrkA [1]; [4]) [µM]	IC50 (human TrkA [2]; [5]) [µM]	IC50 (human TrkA [2]; [6]) [µM]	SMILES	further results
0.083	0.12	–	COCCN1C[C@@H](OC(=O)Nc2c(C)c(-c3cnn(C)c3)nn2-c2ccccc2)[C@H](c2ccc(F)c(F)c2)C1 (racemic) [Compound I-1]	–
0.121	0.41	–	COCCN1C[C@@H](NC(=O)Nc2c(C)c(-c3cnn(C)c3)nn2-c2ccccc2)[C@](C)(c2ccccc2)C1 (racemic) [Compound I-16]	–
–	–	–	C=C1C[C@@H](NC(=O)Nc2c(C)c(-c3cnn(C)c3)nn2-c2ccccc2)[C@H](c2ccccc2)C1 (racemic) [Compound I-29]	IC50 (human TrkA [1]; [6]): < 0.1 µM; % inhibition of IKr (hERG tail peak current) [3]: 21.2%
0.022	0.21	–	COCCN1C[C@@H](NC(=O)Nc2c(C)c(-c3cnn(C)c3)nn2-c2ccccc2)[C@H](c2ccc3c(c2)OCO3)C1 (racemic) [Compound I-94]	–
0.065	0.05	–	COCC[N+]1([O-])C[C@@H](NC(=O)Nc2c(C)c(-c3cnn(C)c3)nn2-c2ccccc2)[C@H](c2ccc(F)c(F)c2)C1 (stereo partly drawn) [Compound I-3]	% inhibition of IKr (hERG tail peak current) [3]: 20.4%
0.026	0.071	–	COCCN1C[C@@H](NC(=O)Cc2c(C)c(-c3cnn(C)c3)nn2-c2ccccc2)[C@H](c2ccc(F)c(F)c2)C1 [Compound I-8]	–
0.035	0.17	–	Cc1c(-c2cnn(C)c2)nn(-c2ccccc2)c1NC(=O)N[C@@H]1CN(CCOCC(F)(F)F)C[C@H]1c1ccc(F)c(F)c1 [Compound I-22]	–
–	–	–	COCC(=O)N1C[C@@H](NC(=O)Nc2c(C)c(-c3cnn(C)c3)nn2-c2ccccc2)[C@H](c2ccc(F)c(F)c2)C1 [Compound I-026]	% inhibition of IKr (hERG tail peak current) [3]: 3.3%
–	–	–	COCC[C@@H]1C[C@@H](NC(=O)Nc2c(C)c(-c3cnn(C)c3)nn2-c2ccccc2)[C@H](c2ccccc2)C1 [Compound I-084]	% inhibition of IKr (hERG tail peak current) [3]: 10.0%
0.00072	0.0015	–	COCC[C@@H]1C[C@@H](NC(=O)Nc2c(C)c(-c3cnn(C)c3)nn2-c2ccccc2)[C@H](c2ccccc2)C1 [Compound I-84]	–
0.0011	0.0018	–	Cc1c(-c2cnn(C)c2)nn(-c2ccccc2)c1NC(=O)N[C@@H]1CN(Cc2ccco2)C[C@H]1c1ccc(F)c(F)c1 [Compound I-86]	–
0.0018	0.0054	–	COCCC1C[C@@H](NC(=O)Nc2c(C)c(-c3cnn(C)c3)nn2-c2ccccc2)[C@H](c2ccc(F)c(F)c2)N1C (stereo partly drawn) [Compound I-87]	–
0.0078	0.037	–	COCCC1C[C@@H](NC(=O)Nc2c(C)c(-c3cnn(C)c3)nn2-c2ccccc2)[C@H](c2ccc(F)c(F)c2)N1 (stereo partly drawn) [Compound I-91]	–
0.043	0.021	–	CC=C1C[C@@H](NC(=O)Nc2c(C)c(-c3cnn(C)c3)nn2-c2ccccc2)[C@H](c2ccccc2)C1 [Compound I-102]	–
0.095	0.22	–	CNC(=O)C(COC)N1C[C@@H](NC(=O)Nc2c(C)c(-c3cnn(C)c3)nn2-c2ccccc2)[C@H](c2ccc(F)c(F)c2)C1 (stereo partly drawn) [Compound I-109]	–
–	–	< 0.1	COCC[C@@H]1C[C@@H](NC(=O)Nc2c(C)c(-c3cnn(C)c3)nn2-c2ccccc2)[C@H](c2ccc(F)c(F)c2)N1C [Compound I-214]	% inhibition of IKr (hERG tail peak current) [3]: 20.2%
–	–	< 0.1	COCCC1C[C@@H](NC(=O)Nc2c(C)c(-c3cnn(C)c3)nn2-c2ccccc2)[C@H](c2ccc(O)c(O)c2)C1 (stereo partly drawn) [Compound I-221]	% inhibition of IKr (hERG tail peak current) [3]: 13.2%
–	0.0011	–	COCC[C@@H]1C[C@@H](NC(=O)Nc2c(C)c(-c3cnc(C)nc3)nn2-c2ccccc2)[C@H](c2ccc(F)c(F)c2)N1C [Compound I-255]	% inhibition of IKr (hERG tail peak current) [3]: 10.2%

IC50 (human TrkA [1]; [4]) [µM]	IC50 (human TrkA [2]; [5]) [µM]	IC50 (human TrkA [2]; [6]) [µM]	SMILES	further results
–	0.0082	–	COCC[C@@H]1C[C@@H](NC(=O)Nc2c(C)c(-c3cnc(C)nc3)nn2-c2ccccc2)[C@H](c2ccc(F)c(F)c2)N1 [Compound I-256]	–
–	–	< 0.1	COCC[C@@H]1C[C@@H](NC(=O)Nc2c(C)c(-c3ccc(OC)nc3)nn2-c2ccccc2)[C@H](c2ccc(F)c(F)c2)N1 [Compound I-257]	–
–	–	< 0.1	COCC[C@@H]1C[C@@H](NC(=O)Nc2c(C)c(C3=CCNCC3)nn2-c2ccccc2)[C@H](c2ccc(F)c(F)c2)N1C [Compound I-258]	–
–	–	< 0.1	COCC[C@@H]1C[C@@H](NC(=O)Nc2c(C)c(C3=CCN(C(=O)OC(C)(C)C)CC3)nn2-c2ccccc2)[C@H](c2ccc(F)c(F)c2)N1C [Compound I-259]	–
–	–	< 0.1	COCC[C@@H]1C[C@@H](NC(=O)Nc2c(C)c(-c3ccc(C(=O)O)cc3)nn2-c2ccccc2)[C@H](c2ccc(F)c(F)c2)N1 [Compound I-260]	–
–	–	< 0.1	COCC=C1C[C@@H](NC(=O)Nc2c(C)c(-c3cnn(C)c3)nn2-c2ccccc2)[C@H](c2ccccc2)C1 [Compound I-261]	–
–	0.0048	–	COCC[C@@H]1C[C@@H](NC(=O)Nc2c(C)c(-c3cnn(C)c3)nn2-c2ccccc2)[C@H](c2ccnc(F)c2)C1 [Compound I-262]	% inhibition of IKr (hERG tail peak current) [3]: 20.1%
–	–	< 0.1	COCC[C@@H]1C[C@@H](NC(=O)Nc2c(C)c(-c3cnc(C)nc3)nn2-c2ccccc2)[C@H](c2ccccc2)C1 [Compound I-263]	–
–	–	< 0.1	CCNC(=O)c1ccc(-c2nn(-c3ccccc3)c(NC(=O)N[C@@H]3C[C@@H](CCOC)C[C@H]3c3ccccc3)c2C)cc1 [Compound I-264]	–
–	–	< 0.1	COCC[C@@H]1C[C@@H](NC(=O)Nc2c(C)c(C3=CCN(C(=O)OC(C)(C)C)CC3)nn2-c2ccccc2)[C@H](c2ccccc2)C1 [Compound I-265]	–
–	–	< 0.1	COCC[C@@H]1C[C@@H](NC(=O)Nc2c(C)c(C3=CCNCC3)nn2-c2ccccc2)[C@H](c2ccccc2)C1 [Compound I-266]	–
–	–	–	COCC[C@@H]1C[C@@H](NC(=O)Nc2c(C)c(C3=CCN(C(=O)OC)CC3)nn2-c2ccccc2)[C@H](c2ccccc2)C1 [Compound I-268]	IC50 (human TrkA [2]; [7]): < 0.1 µM
–	0.0013	–	COCC[C@@H]1C[C@@H](NC(=O)Nc2c(C)c(-c3cnc(CO)nc3)nn2-c2ccccc2)[C@H](c2ccccc2)C1 [Compound I-269]	–
–	0.00067	–	COCC[C@@H]1C[C@@H](NC(=O)Nc2c(C)c(C3=CCN(C(C)=O)CC3)nn2-c2ccccc2)[C@H](c2ccccc2)C1 [Compound I-270]	–
–	–	–	COCC(O)C1C[C@@H](NC(=O)Nc2c(C)c(-c3cnn(C)c3)nn2-c2ccccc2)[C@H](c2ccccc2)C1 (stereo partly drawn) [Compound I-271]	IC50 (human TrkA [2]; [7]): 0.1 to 1 µM
–	–	–	COCC[C@@H]1C[C@@H](NC(=O)Nc2c(C)c(OCC3CCN(C)CC3)nn2-c2ccccc2)[C@H](c2ccccc2)C1 [Compound I-272]	IC50 (human TrkA [2]; [7]): < 0.1 µM
–	–	–	COCC[C@@H]1C[C@@H](NC(=O)Nc2c(C)c(-c3cnn(C)c3)nn2-c2ccccc2)[C@](O)(c2ccccc2)C1 [Compound I-273]	IC50 (human TrkA [2]; [7]): > 1 µM
–	–	–	COCC[C@@H]1C[C@@H](NC(=O)Nc2c(C)c(-c3cnn(C)c3)nn2-c2ccccc2)[C@H](c2ccc(F)cc2)N1C [Compound I-275]	IC50 (human TrkA [2]; [7]): < 0.1 µM
